In US20230278972A1, “SUBSTITUTED HALOALKYL SULFONANILIDE HERBICIDES” (FMC Corporation, priority 2020, published 2023):

Key:
Assay type in all cases: in vivo
[1] = system: blackgrass (Alopecurus myosuroides); assay: Test A1 preemergence, blackgrass
How it was run: (§1)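 Plants grown in pots of loam/sand mix; preemergence = soil-directed spray on seeded pots, postemergence = spray at 1–2 leaves, height 2–10 cm; test chemicals formulated in non-phytotoxic solvent with surfactant.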

corn (Zea mays) = assay: Test A1 preemergence, corn
How it was run: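 Seeds were first planted into a blend of loam soil and sand and given a preemergence directed soil spray. In parallel, pots of the same soil were sown for postemergence application once plants reached 2 to 10 cm and the one- to two-leaf stage. Both used surfactant-containing non-phytotoxic solvent formulations.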

[2] = system: wheat (Triticum aestivum); assay: Test A1 preemergence, wheat
How it was run: as §1

[3] = system: Foxtail, Giant (giant foxtail, Setaria faberi); assay: Test A1 postemergence, Foxtail, Giant; conditions: for Plant response rating, Foxtail, Giant: Postemergence
How it was run: (§2)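 Test compounds were formulated in a non-phytotoxic solvent mixture containing a surfactant. For preemergence, seeds sown in a loam soil–sand blend received a directed soil spray. For postemergence, potted plants in the same soil, 2 to 10 cm tall at the one- to two-leaf stage, were sprayed.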

soybean (Glycine max) = assay: Test A1 postemergence, soybean; conditions: for Plant response rating, Soybean: Postemergence
How it was run: as §2

[4] = system: wheat (Triticum aestivum); assay: Test A1 postemergence, wheat; conditions: for Plant response rating, Wheat: Postemergence
How it was run: as §2

rice (Oryza sativa) = assay: Test B1 flooded paddy test, rice; conditions: 250 g ai/ha, Flood, applied to paddy water, 2-leaf stage, visually evaluated after 10 to 14 days
From the text: A dash (-) response means no test result.

[5] = 31 g ai/ha, 0 to 100 scale (0 no effect, 100 complete control)
[6] = 125 g ai/ha, 0 to 100 scale, 0 no effect, 100 complete control
[7] = 31 g ai/ha, 0 to 100 scale (0 no effect, 100 complete control), 10 days
[8] = 31 g ai/ha, postemergence, 0 to 100 scale (0 no effect, 100 complete control)

| SMILES | Plant response rating, Blackgrass [1, 5] | Plant response rating, Blackgrass [1, 6] | Plant response rating, Corn (corn (Zea mays); [5]) | Plant response rating, Corn (corn (Zea mays); [6]) | Plant response rating, Wheat [2, 5] | Plant response rating, Wheat [2, 6] | Plant response rating, Foxtail, Giant [3, 7] | Plant response rating, Foxtail, Giant ([3]; 125 g ai/ha, 0 to 100 scale) | Plant response rating, Soybean (soybean (Glycine max); [7]) | Plant response rating, Soybean (soybean (Glycine max); 125 g ai/ha, 0 to 100 scale) | Plant response rating, Wheat [4, 7] | Plant response rating, Wheat ([4]; 125 g ai/ha, 0 to 100 scale) | Plant response rating, Rice (0 to 100 scale, 0 is no effect, 100 is complete control) (rice (Oryza sativa)) | Foxtail, Giant plant response rating [3, 8] | Soybean plant response rating (soybean (Glycine max); [8]) | Wheat plant response rating [4, 8] |
| --- | --- | --- | --- | --- | --- | --- | --- | --- | --- | --- | --- | --- | --- | --- | --- | --- |
| Cc1c(C(=O)N2CCCCC2)cc(N(COC(=O)C(C)(C)C)S(=O)(=O)C(F)(F)F)c(C)c1C [Compound 329, [[(Trifluoromethyl)sulfonyl][2,3,4-trimethyl-5-(1-piperidinylcarbonyl)phenyl]amino]methyl 2,2-dimethylpropanoate] | 0 | 0 | 0 | 0 | 0 | 0 | 10 | 70 | 60 | 60 | 0 | 0 | 20 |  |  |  |
| Cc1cc(C)c(N(COC(=O)OC(C)(C)C)S(=O)(=O)C(F)(F)F)cc1C1=NOC2CCCC12 (stereo not drawn) [Compound 316] | 0 | 0 | 0 | 0 | 0 | 0 | 0 | 0 | 10 | 50 | 10 | 40 | 0 |  |  |  |
| Cc1cc(C)c(C2=NOC3(C)CCCC23)cc1NS(=O)(=O)C(F)(F)F (stereo not drawn) [Compound 340] | 60 | 90 | 0 | 90 | 20 | 90 | 10 | 50 | 50 | 60 | 50 | 70 | 10 |  |  |  |
| Cc1c(C2=NO[C@@H]3CCC[C@H]23)cc(N(COC(=O)C(C)(C)C)S(=O)(=O)C(F)(F)F)c(C)c1C [Compound 336, [[(Trifluoromethyl)sulfonyl][2,3,4-trimethyl-5-[(3aR,6aR)-3a,5,6,6a-tetrahydro-4H-cyclopent[d]isoxazol-3-yl]phenyl]amino]methyl 2,2-dimethylpropanoate] | 0 | 0 | 0 | 0 | 0 | 0 | 0 | 40 | 20 | 50 | 0 | 0 | 45 |  |  |  |
| CCOC(=O)N(c1cc(C(=O)N2CCC(C)CC2)c(C)cc1C)S(=O)(=O)C(F)(F)F [Compound 354] | 0 | 0 | 0 | 0 | 0 | 30 | 0 | 70 | 50 | 60 | 20 | 40 | 15 |  |  |  |
| Cc1c(NS(=O)(=O)C(F)(F)F)cc(C2=NOC3CCCC23)c(C)c1C (stereo not drawn) [Compound 335] | 0 | 0 | 0 | 60 | 0 | 0 | 0 | 0 | 0 | 30 | 0 | 0 | 45 |  |  |  |
| C#CCN(C)C(=O)c1cc(N(COC(=O)C(C)(C)C)S(=O)(=O)C(F)(F)F)c(C)c(C)c1C [Compound 371] | 0 | 20 | 0 | 90 | 0 | 10 |  | 90 |  | 90 |  | 60 | 10 | 90 | 60 | 0 |
| Cc1cc(C)c(C2=NOC3COCC23)cc1NS(=O)(=O)C(F)(F)F (stereo not drawn) [Compound 297] | 20 | 40 | 0 | 20 | 20 | 100 | 10 | 60 | 30 | 50 | 10 | 80 | 0 |  |  |  |
| Cc1cc(Br)c(C2=NOC3CCCC23)cc1NS(=O)(=O)C(F)(F)F (stereo not drawn) [Compound 302] | 0 | 0 | 0 | 0 | 0 | 20 | 0 | 0 | 20 | 40 | 0 | 10 | 0 |  |  |  |
| C#CCN(C)C(=O)c1cc(NS(=O)(=O)C(F)(F)F)c(Cl)c(F)c1C [Compound 337] | 40 | 60 | 0 | 70 | 10 | 60 | 0 | 90 | 50 | 70 | 0 | 30 | 25 |  |  |  |
| Cc1cc(C)c(N(COC(=O)C(C)(C)C)S(=O)(=O)C(F)(F)F)cc1C(=O)N1CCOCC1 [Compound 362] | 10 | 50 | 0 | 30 | 20 | 70 | 20 | 90 | 50 | 70 | 40 | 60 | 10 |  |  |  |
| Cc1c(NS(=O)(=O)C(F)(F)F)cc(C(=O)N2CC(C)OC(C)C2)c(C)c1C (stereo not drawn) [Compound 327] | 0 | 30 | 0 | 60 | 0 | 30 | 30 | 90 | 60 | 60 | 0 | 50 | 0 |  |  |  |
